Test results: ChEMBL document CHEMBL2202954, “The effect of PLC-γ2 inhibitors on the growth of human tumour cells” (2012)

Legend:
Assay type in all cases: functional
UO-31 = assay: Cytotoxicity against human UO31 cells assessed as cellular growth at 10 uM by SRB assay
SN12C = assay: Cytotoxicity against human SN12C cells assessed as cellular growth at 10 uM by SRB assay
SR = assay: Cytotoxicity against human SR cells assessed as cellular growth at 10 uM by SRB assay
HT-29 = assay: Cytotoxicity against human HT-29 cells assessed as cellular growth at 10 uM by SRB assay
Malme-3M = assay: Cytotoxicity against human MALME-3M cells assessed as cellular growth at 10 uM by SRB assay
MOLT-4 = assay: Cytotoxicity against human MOLT4 cells assessed as cellular growth at 10 uM by SRB assay
SK-MEL-28 = assay: Cytotoxicity against human SK-MEL-28 cells assessed as cellular growth at 10 uM by SRB assay
OVCAR-8 = assay: Cytotoxicity against human OVCAR8 cells assessed as cellular growth at 10 uM by SRB assay
IGROV-1 = assay: Cytotoxicity against human IGROV1 cells assessed as cellular growth at 10 uM by SRB assay
HL-60(TB) = assay: Cytotoxicity against human HL-60(TB) cells assessed as cellular growth at 10 uM by SRB assay
BT-549 = assay: Cytotoxicity against human BT549 cells assessed as cellular growth at 10 uM by SRB assay
SF-295 = assay: Cytotoxicity against human SF295 cells assessed as cellular growth at 10 uM by SRB assay
MDA-MB-231 = assay: Cytotoxicity against human MDA-MB-231 cells assessed as cellular growth at 10 uM by SRB assay
A498 = assay: Cytotoxicity against human A498 cells assessed as cellular growth at 10 uM by SRB assay
DU-145 = assay: Cytotoxicity against human DU145 cells assessed as cellular growth at 10 uM by SRB assay
EKVX = assay: Cytotoxicity against human EKVX cells assessed as cellular growth at 10 uM by SRB assay
SK-MEL-2 = assay: Cytotoxicity against human SK-MEL-2 cells assessed as cellular growth at 10 uM by SRB assay
OVCAR-4 = assay: Cytotoxicity against human OVCAR4 cells assessed as cellular growth at 10 uM by SRB assay
OVCAR-5 = assay: Cytotoxicity against human OVCAR5 cells assessed as cellular growth at 10 uM by SRB assay

Row | Compound | Activity (UO-31) | Activity (SN12C) | Activity (SR) | Activity (HT-29) | Activity (Malme-3M) | Activity (MOLT-4) | Activity (SK-MEL-28) | Activity (OVCAR-8) | Activity (IGROV-1) | Activity (HL-60(TB)) | Activity (BT-549) | Activity (SF-295) | Activity (MDA-MB-231) | Activity (A498) | Activity (DU-145) | Activity (EKVX) | Activity (SK-MEL-2) | Activity (OVCAR-4) | Activity (OVCAR-5)
1 | CC1(C)CC(=O)c2cc3c(N)c(C(=O)Nc4ccc(Cl)cc4)sc3nc2C1 | 108.83% | 109.62% | 112.84% | 96.43% | 119.36% | 104% | 118.07% | 110.67% | 110.85% | 107.32% | 124.84% | 100.12% | 114.95% | 75.63% | 103.07% | 93.17% | 100.96% |  | 
2 | Clc1ccc(-c2nc(-c3cccs3)no2)cc1 | 74.13% | 97.08% | 85.71% | 106.39% |  | 86.35% | 115.07% | 106.56% |  | 98.45% | 111.04% | 92.23% | 81.39% | 93.08% | 119.78% | 85.36% | 116.4% | 65.77% | 108.26%
3 | Cc1ccc2c(c1)N/C(=C/C(=O)c1ccc(Cl)cc1)C(=O)O2 | 94.15% | 93.53% | 110.86% | 105.84% | 99.95% | 86.91% | 116.13% | 101.66% | 136.06% | 97.02% | 109.64% | 113.06% | 86.67% |  | 112.1% | 106.62% | 108.87% | 88.88% | 106.86%
4 | Cc1ccc(S(=O)(=O)Oc2ccc(-c3cnc4ccccc4n3)cc2)cc1 | 109.58% | 108.92% | 93.66% | 89.62% | 122.99% | 89.3% | 113.2% | 96.94% | 119.02% | 109.83% | 107.31% | 89.7% | 111.87% | 88.71% | 114.58% | 98.5% | 127.78% |  | 102.67%
5 | Clc1ccc(-c2nc(-c3cccs3)no2)c(Cl)c1 | 70.88% | 100.86% |  |  | 102.62% |  | 103.74% | 97.12% | 66.78% |  | 83.02% | 107.44% |  | 110.86% | 99.3% | 72.63% | 122.72% |  | 
6 | O=C(Nc1nc2ccc(Cl)cc2s1)c1ccc(Cl)cc1Cl | 101% | 113.76% | 98.17% | 94.25% | 109.41% | 93.88% | 107.5% | 97.79% | 103.26% | 92.55% | 111.68% | 76.92% | 114.66% | 93.8% | 108.4% | 82.69% | 116.07% |  | 98.11%
7 | Cc1ccc(C(=O)/C=C2/Nc3ccc(C)cc3OC2=O)cc1 | 94.47% | 96.84% | 100.89% | 106.8% | 114.26% | 83.44% | 118.66% | 102.51% | 115.36% | 82.69% | 108.86% | 132.37% | 88.3% | 86.34% | 118.59% | 92.88% | 123.75% | 96.74% | 120.4%
8 | Cc1cccc(-c2nc(-c3cccs3)no2)c1 | 59.19% |  | 93.72% | 98.29% | 112.31% | 96.35% | 109.6% | 98.72% | 61.64% | 96% | 88.13% | 91.28% | 76.61% | 82.09% | 120% | 84.59% | 100.25% |  | 
9 | Cc1cc(C)c(NC(=O)c2sc3nc4c(cc3c2N)C(=O)CCC4)c(C)c1 | 56.95% |  | 10.54% | 0.48% | 42.11% | 43.03% | 55.98% | 45.64% | 35.36% | 14.55% | 56.75% | -11.34% | 35.68% | -7.37% | 10.04% | 54.36% | 36.14% |  | 
